Here are results for one compound from US6592867B2, “Antimicrobial composition containing an oxidoreductase and an enhancer of the N-hydroxyanilide-type” (Novozymes A/S, priority 1998, dated 2003).

Assay type in all cases: cell-based
Assay [1] deals with Enterococcus faecalis (DSM 2570). The assay is described as follows: Bactericidal activity of laccase plus N-hydroxyacetanilide, Malthus (Example 2). The conditions noted are these: 20 min, 40° C. How it is done: (§1) The antimicrobial activity was determined against Pseudomonas fluorescens (Gram et al. 1990, International Journal of Food Microbiology 10: 303-316) and Staphylococcus epidermidis (DSM 20042). Cells were grown in Tryptone Soya Broth (Oxoid CM129) at 30° C. (S. epidermidis) or 25° C. (P. fluorescens) for 24 h and diluted in the MES-buffer to a final cell concentration of approximately 10^6 cfu/ml. The cell suspensions were mixed with rCiP (3 POXU/ml), enhancing agent (0.2 mM) and hydrogen peroxide (0.5 mM) for 20 min at 40° C. The bactericidal activity was determined by incubation in Malthus. Detection times measured by the Malthus instrument were converted to cfu/ml by a calibration curve. Either direct or Indirect Malthus measurements were used when enumerating total survival cells (Malthus Flexi M2060, Malthus Instrument Limited). By the direct measurements, the cell metabolism was determined by conductance measurements in the growth substrate. By the indirect measurements, 3 ml of growth medium was transferred to the outer chamber of the indirect Malthus cells, and 0.5 ml of sterile KOH (0.1 M) was transferred to the inner chamber. The cell suspensions were after enzyme treatment transferred to the outer chamber of the Malthus cell. As cells are growing in the outer chamber they produce CO2 which will dissolve in the KOH in the inner chamber and thereby change the conductance of the KOH. The amount of CO2 formed by the respiring cells surviving the enzyme treatment was used for estimating the number of viable cells. When the conductance change is measurable by the Malthus, a detection time (dt) will be recorded. The dt's were converted to colony counts by use of a calibration curve relating cfu/ml to dt (Johansen et al. 1995. Journal of Applied Bacteriology 78:297-303, Johansen et al. 1997, Applied and Environmental Microbiology 63:3724-3728). Antibacterial activity of Polyporus pinsitus laccase (rPpL), obtained as described in WO 96/00290), and Coprinus cinereus laccase (rCcL), obtained as described in WO 97/08325, was determined with N-hydroxyacetanilide as enhancing agent against Pseudomonas aeruginosa (ATCC 10145), Enterobacter aerogenes (ATCC 13048) and Enterococcus faecalis (DSM 2570). The bactericidal activity was determined as described in Example 1, the antimicrobial activity of rPpL (1 mg/L) was evaluated at pH 6, whereas rCcL (1 mg/L) was evaluated at pH 8.

Assay [2] has as its system Enterobacter aerogenes (ATCC 13048). Described as above. The conditions noted are these: for Bactericidal activity (dose-response): 20 min, 40° C. On the procedure:
as §1

Assay [3] relates to Pseudomonas aeruginosa (ATCC 10145). The assay is described as follows: Bactericidal activity of laccase plus enhancing agent, surviving cells enumerated by Malthus (Examples 2 and 3). How it is done:
as §1, with “8. Antibacterial activity of Coprinus cinereus peroxidase (rCiP), Polyporus pinsitus laccase (rPpL), Coprinus cinereus laccase (rCcL) and Rhizoctonia solani laccase (rRsL) (as described in WO 95/07988) was determined with different enhancing agents at pH 6 and 8 (buffers; see Example 1). The rCiP was combined with 0.5 mM hydrogen peroxide. Antimicrobial activity of rCiP and rPpL was determined against Pseudomonas fluorescens (Gram et al. 1990, International Journal of Food Microbiology 10:303-316), whereas antimicrobial activity of rCcL and rRsL was determined against Pseudomonas aeruginosa (ATCC 10145). The bactericidal activity was determined as described in example 1. The results are shown as the reduction in living cell number. Thus, a reduction of 4 correspond to a 4 log reduction of living cells e.g. from 10^6 CFU/ml to 10^2 CFU/ml.” for “8.”

Setting [4] is: rPpL 1 mg/L, pH 6, high concentration of N-hydroxyacetanilide.

Regarding `CC(=O)N(O)c1ccccc1` [N-hydroxyacetanilide], the “Bactericidal activity (dose-response)” value in assay [1] (rCcL 1 mg/L, pH 8) is reported as “significant bactericidal activity”; in assay [1] (rPpL 1 mg/L, pH 6), “significant bactericidal activity”; in assay [2] (rCcL 1 mg/L, pH 8) it was “significant bactericidal activity”; in assay [2] (rPpL 1 mg/L, pH 6), “significant bactericidal activity”; in assay [3] (rCcL 1 mg/L, pH 8, 20 min, 40° C.), “significant bactericidal activity”; in assay [3] (rPpL 1 mg/L, pH 6, 20 min, 40° C.) it was “significant bactericidal activity”. Also, the “Bactericidal activity at high concentration of enhancing agent” value in assay [2] (setting [4]) and in assay [3] (setting [4]) was “total kill” throughout. The “Enhancing agent concentration at which bactericidal activity was obtained” value in assay [3] (combined with laccase (rPpL or rCcL, 1 mg/L), 20 min, 40° C.) was “above 200 μM”.
